Results from patent US20220233661A1, “METHOD OF DETERMINING ELIGIBILITY OF CANCER PATIENT FOR PEPTIDE VACCINE THERAPY” (priority 2019, published 2022).

Columns and labels:
[1] = tested on: anti-peptide IgG in plasma; assay: Test Example 4: peptide-specific IgG titer pre and post vaccination, bead-based multiplexed Luminex assay; assay type: in vivo, human; conditions: for Pre-vaccination IgG Negative (number of patients) / Pre-vaccination IgG Positive (number of patients): cut off 10 FIU; for Post vaccination IgG: number of (positive) patients among vaccinated: positive IgG response; for Pre-vaccination IgG Negative patients: number of 2,588 patients below 10 FIU; for Pre-vaccination IgG Positive patients: number of 2,588 patients with ≥10 FIU; for Post vaccination IgG: (positive) patients: number of vaccinated patients with positive IgG response; for Correlation between immune responses and OS: Negative (mOS): patients with negative post-vaccination IgG response to the peptide; for Correlation between immune responses and OS: Positive (mOS): patients with positive post-vaccination IgG response to the peptide
Outline: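 Plasma taken before vaccination and at the end of the first and second cycles; incubated with peptide-coupled beads 2 hours at 25° C., then biotinylated anti-human IgG (gamma chain-specific) and streptavidin-PE. Bead FIU read by Luminex; positivity cutoff 10 FIU in 100-fold diluted samples.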

cancer patients = assay: Test Example 4: correlation between vaccination with individual peptides (or peptide sets) and OS, Cox proportional hazards regression; assay type: in vivo, human; conditions: for HR: Cox proportional hazards regression, OS; for Correlation between immune responses and OS: Negative (mOS) / Correlation between immune responses and OS: Positive (mOS): Table 20, <64% neutrophil and ≥26% lymphocyte; for Correlation between immune responses and OS: Negative (mOS): vaccinated patients with negative IgG response; for Correlation between immune responses and OS: Positive (mOS): vaccinated patients with positive IgG response
Outline: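 Univariate and multivariate Cox proportional hazards regression of each of 31 vaccine peptides against OS (enrollment to death or last contact), giving HR with 95% CI; also run separately in 2,085 advanced (stage IV+recurrence) and 503 stage I-III patients. Two-sided p<0.05 considered significant.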

[2] = Table 20, patients showing both <64% neutrophil and ≥26% lymphocyte
[3] = patients showing detectable levels
[4] = patients showing positive responses
[5] = Table 18, all 2,588 cases, vaccinated vs non-vaccinated
[6] = Table 18, all 2,588 cases, median OS of patients under PPV containing the peptide
[7] = Table 18, all 2,588 cases, median OS of patients under PPV not containing the peptide
[8] = Table 19, 2,085 advanced cancer patients (stage IV+recurrence)
[9] = Table 19, 2,085 advanced cancer patients (stage IV+recurrence), PPV containing the peptide
[10] = Table 19, 2,085 advanced cancer patients (stage IV+recurrence), PPV not containing the peptide
[11] = Table 21, patients showing both <64% neutrophil and ≥26% lymphocyte
[12] = Table 21, patients showing both <64% neutrophil and ≥26% lymphocyte, PPV containing the peptide
[13] = Table 21, patients showing both <64% neutrophil and ≥26% lymphocyte, PPV not containing the peptide

QIRPIFSNR (listed as Homo sapiens) [SART3-734]
Post vaccination IgG Median (FIU) [1, 2]: 7,098 FIU
Pre-vaccination IgG Median (FIU) [1, 2]: 96 FIU
Pre-vaccination IgG Negative (number of patients) [1, 2]: 231
Pre-vaccination IgG Positive (number of patients) [1, 2]: 835
Post vaccination IgG: number of (positive) patients among vaccinated [1, 2]: 253(116)
Pre-vaccination IgG Negative patients [1]: 547
Pre-vaccination IgG Positive patients [1]: 2,041
Post vaccination IgG: (positive) patients [1]: 625(225)
Pre-vaccination IgG Median (FIU) [1, 3]: 111 FIU
Post vaccination IgG Median (FIU) [1, 4]: 4,816 FIU
Correlation between immune responses and OS: Negative (mOS) [1]: 11.0 months
Correlation between immune responses and OS: Positive (mOS) [1]: 22.3 months
HR (cancer patients; [5]): 1.0
Vaccinate cases (mOS) (cancer patients; [6]): 625(10.9) M
Non-vaccinate cases (mOS) (cancer patients; [7]): 589(11.3) M
HR (cancer patients; [8]): 1.0
Vaccinate cases (mOS) (cancer patients; [9]): 502(9.5) M
Non-vaccinate cases (mOS) (cancer patients; [10]): 467(10.2) M
Correlation between immune responses and OS: Negative (mOS) (cancer patients): 14.8 months
Correlation between immune responses and OS: Positive (mOS) (cancer patients): 29.3 months
HR (cancer patients; [11]): 0.9
Vaccinate cases (mOS) (cancer patients; [12]): 253(17.9) M
Non-vaccinate cases (mOS) (cancer patients; [13]): 254(17.5) M

LLQAEAPRL (listed as Homo sapiens) [SART3-302]
Post vaccination IgG Median (FIU) [1, 2]: 17,719 FIU
Pre-vaccination IgG Median (FIU) [1, 2]: 84 FIU
Pre-vaccination IgG Negative (number of patients) [1, 2]: 375
Pre-vaccination IgG Positive (number of patients) [1, 2]: 691
Post vaccination IgG: number of (positive) patients among vaccinated [1, 2]: 173(138)
Pre-vaccination IgG Negative patients [1]: 948
Pre-vaccination IgG Positive patients [1]: 1,640
Post vaccination IgG: (positive) patients [1]: 408(271)
Pre-vaccination IgG Median (FIU) [1, 3]: 84 FIU
Post vaccination IgG Median (FIU) [1, 4]: 14,958 FIU
Correlation between immune responses and OS: Negative (mOS) [1]: 9.1 months
Correlation between immune responses and OS: Positive (mOS) [1]: 18.2 months
HR (cancer patients; [5]): 0.9
Vaccinate cases (mOS) (cancer patients; [6]): 408(12.7) M
Non-vaccinate cases (mOS) (cancer patients; [7]): 642(10.5) M
HR (cancer patients; [8]): 0.9
Vaccinate cases (mOS) (cancer patients; [9]): 328(11.4) M
Non-vaccinate cases (mOS) (cancer patients; [10]): 534(9.8) M
Correlation between immune responses and OS: Negative (mOS) (cancer patients): 10.8 months
Correlation between immune responses and OS: Positive (mOS) (cancer patients): 21.2 months
HR (cancer patients; [11]): 0.9
Vaccinate cases (mOS) (cancer patients; [12]): 173(18.1) M
Non-vaccinate cases (mOS) (cancer patients; [13]): 261(16.3) M

AYDFLYNYL (listed as Homo sapiens) [SART2-161]
Post vaccination IgG Median (FIU) [1, 2]: 775 FIU
Pre-vaccination IgG Median (FIU) [1, 2]: 27 FIU
Pre-vaccination IgG Negative (number of patients) [1, 2]: 699
Pre-vaccination IgG Positive (number of patients) [1, 2]: 367
Post vaccination IgG: number of (positive) patients among vaccinated [1, 2]: 70(26)
Pre-vaccination IgG Negative patients [1]: 1,641
Pre-vaccination IgG Positive patients [1]: 947
Post vaccination IgG: (positive) patients [1]: 195(61)
Pre-vaccination IgG Median (FIU) [1, 3]: 29 FIU
Post vaccination IgG Median (FIU) [1, 4]: 312 FIU
Correlation between immune responses and OS: Negative (mOS) [1]: 12.6 months
Correlation between immune responses and OS: Positive (mOS) [1]: 20.6 months
HR (cancer patients; [5]): 1.0
Vaccinate cases (mOS) (cancer patients; [6]): 195(12.3) M
Non-vaccinate cases (mOS) (cancer patients; [7]): 13,552(11.9) M
HR (cancer patients; [8]): 0.9
Vaccinate cases (mOS) (cancer patients; [9]): 156(10.7) M
Non-vaccinate cases (mOS) (cancer patients; [10]): 1090(10.4) M
Correlation between immune responses and OS: Negative (mOS) (cancer patients): 14.4 months
Correlation between immune responses and OS: Positive (mOS) (cancer patients): 26.7 months
HR (cancer patients; [11]): 1.1
Vaccinate cases (mOS) (cancer patients; [12]): 70(17.4) M
Non-vaccinate cases (mOS) (cancer patients; [13]): 555(18.4) M

DYLRSVLEDF (listed as Homo sapiens) [Lck-488]
Post vaccination IgG Median (FIU) [1, 2]: 11,894 FIU
Pre-vaccination IgG Median (FIU) [1, 2]: 60 FIU
Pre-vaccination IgG Negative (number of patients) [1, 2]: 192
Pre-vaccination IgG Positive (number of patients) [1, 2]: 874
Post vaccination IgG: number of (positive) patients among vaccinated [1, 2]: 452(313)
Pre-vaccination IgG Negative patients [1]: 441
Pre-vaccination IgG Positive patients [1]: 2,147
Post vaccination IgG: (positive) patients [1]: 1103(635)
Pre-vaccination IgG Median (FIU) [1, 3]: 60 FIU
Post vaccination IgG Median (FIU) [1, 4]: 11,594 FIU
Correlation between immune responses and OS: Negative (mOS) [1]: 7.8 months
Correlation between immune responses and OS: Positive (mOS) [1]: 20.6 months
HR (cancer patients; [5]): 0.9
Vaccinate cases (mOS) (cancer patients; [6]): 1,103(12.0) M
Non-vaccinate cases (mOS) (cancer patients; [7]): 447(12.0) M
HR (cancer patients; [8]): 1.0
Vaccinate cases (mOS) (cancer patients; [9]): 872(10.7) M
Non-vaccinate cases (mOS) (cancer patients; [10]): 374(10.1) M
Correlation between immune responses and OS: Negative (mOS) (cancer patients): 9.3 months
Correlation between immune responses and OS: Positive (mOS) (cancer patients): 24.7 months
HR (cancer patients; [11]): 1.0
Vaccinate cases (mOS) (cancer patients; [12]): 452(17.9) M
Non-vaccinate cases (mOS) (cancer patients; [13]): 173(19.7) M

HYRKWIKDTI (listed as Homo sapiens) [PSA-248]
Post vaccination IgG Median (FIU) [1, 2]: 18,191 FIU
Pre-vaccination IgG Median (FIU) [1, 2]: 47 FIU
Pre-vaccination IgG Negative (number of patients) [1, 2]: 231
Pre-vaccination IgG Positive (number of patients) [1, 2]: 835
Post vaccination IgG: number of (positive) patients among vaccinated [1, 2]: 107(81)
Pre-vaccination IgG Negative patients [1]: 553
Pre-vaccination IgG Positive patients [1]: 2,035
Post vaccination IgG: (positive) patients [1]: 283(200)
Pre-vaccination IgG Median (FIU) [1, 3]: 48 FIU
Post vaccination IgG Median (FIU) [1, 4]: 13,165 FIU
Correlation between immune responses and OS: Negative (mOS) [1]: 7.0 months
Correlation between immune responses and OS: Positive (mOS) [1]: 20.2 months
HR (cancer patients; [5]): 0.9
Vaccinate cases (mOS) (cancer patients; [6]): 283(13.8) M
Non-vaccinate cases (mOS) (cancer patients; [7]): 1,267(11.6) M
HR (cancer patients; [8]): 0.9
Vaccinate cases (mOS) (cancer patients; [9]): 230(13.0) M
Non-vaccinate cases (mOS) (cancer patients; [10]): 1016(10.2) M
Correlation between immune responses and OS: Negative (mOS) (cancer patients): 9.6 months
Correlation between immune responses and OS: Positive (mOS) (cancer patients): 27.4 months
HR (cancer patients; [11]): 0.9
Vaccinate cases (mOS) (cancer patients; [12]): 107(20.4) M
Non-vaccinate cases (mOS) (cancer patients; [13]): 518(17.9) M
